Patent EP2815749A1, “Solid form of 4-amino-2-(2,6-dioxopiperidine-3-yl)isoindoline-1,3-dione having specified X-ray diffraction pattern” (IP Gesellschaft für Management mbH, priority 2013, dated 2014)
Where a name gives a salt, the structure may show the parent alone. Read-outs that look alike come from different tables or passages of the source. One block for each compound: values may come before it.

Assays:
[1] = Desolvation of solvate forms of Compound (VII); assay type: physicochemical
Protocol: Polymorph screening: A polymorph screen was conducted in the methylethyl ketone (MEK)/ water solvent systems, as well as in the acetonitrile (ACN), ACN/water and isopropyl acetate solvent systems. Polymorph screening techniques included crash cooling, solvent evaporation, antisolvent addition, and slurry experiments. Slurry experiments were performed on an IKA RCT hot plate with magnetic stirring set to 710 rpm. The temperature was controlled with an IKA ETS-D5 thermocouple. Solvent volumes were measured and transferred with Gibson Pipetteman volumetric pipettes. New forms that were identified as solvates were subjected to desolvation under two potential conditions: (1) drying in a vacuum oven at 40°C and (2) sitting undisturbed under ambient conditions in a fume hood. Physical characterization of all forms proceeded by X-ray powder diffraction (XRPD) and thermogravimetric analysis (TGA).
Experiment 6: Desolvation: New forms of Compound (VII) obtained in the polymorph screen suspected of being solvates were subjected to further form investigation through attempted desolvation. Forms D, E, F, G, H, I, J, K, L and Hydrate A were left to stand open to the atmosphere under ambient conditions and or were placed in a vacuum oven. […] Forms D and K produced new crystalline XRPD patterns following desolvation. […] In some embodiments, Form R ({drug7p}) is characterized by one or more peaks in an XRPD spectrum selected from the peaks listed in Table 20. Form R ({drug7p}) Peak List:
In some embodiments, Form S ({drug7q}) is characterized by one or more peaks in an XRPDspectrum selected from the peaks listed in Table 21.

[2] = Equilibration and form conversion experiments of Compound of formula (V); assay type: physicochemical; settings: for Form by XRPD after equilibration: 6 hours
[3] = Hygroscopicity of forms of Compound of formula (V) (DVS); assay type: physicochemical; settings: between 0% and 90% relative humidity; 25°C
Protocol: Differential Scanning Calorimetry (DSC): DSC analyses were performed on a TA instrument Q2000 Differential Scanning Calorimeter. Indium was used as the calibration standard. Approximately 2-5 mg of sample was placed into a DSC pan. The sample was heated under nitrogen at a rate of 10°C/min, up to a final temperature of 350°C. Melting points were reported as the extrapolated onset temperatures. Thermogravimetric Analysis (TGA): TGA analyses were performed on a TA instrument Q5000 Thermogravimetric Analyzer. Calcium oxalate was used for a performance check. Approximately 2-10 mg of accurately weighed sample was placed on a pan and loaded into the TGA furnace. The sample was heated under nitrogen at a rate of 10°C/min, up to a final temperature of 300°C. Attenuated Total Reflection Fourier-Transform Infrared Analysis (ATR-FTIR): FTIR analyses were performed on the samples "as is" using an attenuated total reflection (ATR) attachment on a Nicolet 6700 FTIR spectrometer. After a background of ambient lab conditions was obtained, samples were placed on the ATR, compressed with the anvil, and spectrum acquired. Miniature Scanning Electron Microscope (Mini SEM) Morphology analysis of the samples was carried out on an Even Mini SEM. Small amounts of samples were dispersed on a sample holder, and then coating with gold viewed with 200x and 1000x magnification. Dynamic Vapor Sorption (DVS) Hygroscopicity was determined on a Surface Measurement Systems DVS. Typically a sample size of 5-30 mg was loaded into the DVS instrument sample pan and the sample was analyzed on a DVS automated sorption analyzer at 25°C. The relative humidity was increased from 0 % to 90 %RH at 10 %RH step. The relative humidity was then decreased in a similar manner to accomplish a full adsorption/desorption cycle. The entire scope of this invention is not limited by the specific examples described herein, but is more readily understood with reference to the appended claims.

[4] = Equilibration and form conversion experiments of Compound of formula (V); assay type: physicochemical; settings: for Form by XRPD after equilibration: Ambient, 8 days
Protocol: Equilibration: Equilibration studies using single, binary and ternary combinations of batch solvents (water, acetone, and acetonitrile) were investigated to mimic key steps in manufacturing 3-(4-nitro-1-oxoisoindolin-2-yl)piperidine-2,6-dione. Materials of 3-(4-nitro-1-oxoisoindolin-2-yl)piperidine-2,6-dione and solvent or solvent mixtures were added to a glass vial to achieve free-flowing slurry and allowed to equilibrate at the specified temperature. After equilibration for 8 days, the solid phase was separated via filtration. The solid phase was then dried under air and analyzed by XRPD. List of Experimental Conditions for Equilibration:
A total of four batches of 3-(4-nitro-1-oxoisoindolin-2-yl)piperidine-2,6-dione were characterized by XRPD, DSC, TGA, ATR-FTIR and DVS, as described in section 6.5. The solid form represented by the batch 1 was designated as Form A ({drug5b}); the solid form represented by the batch 4 was designated as Form B ({drug5c}); the batches 2 and 3 were determined to be mixtures of Forms A and B, with Form B ({drug5c}) dominating the patterns. The equilibration experiments were performed using batches 2, 3 and 4, and the results are described in Table 2. Results for Equilibration Experiments:
Results from Additional Form conversion Experiments: […]

[5] = Salt screening and crystalline salt characterization of Compound (VI); settings: for Hygroscopicity: ambient temperature and relative humidity conditions
Protocol: The screening examined acid type, acid level (equivalents), and/or type of crystallization solvent. Each plate contained 96 well plates (8 rows of 12 columns per plate). […] The solution (12.5 mL) was transferred to 24 vials. To each vial was added 0.25 M EtOH stock solutions of the following acids:
The content of each vial was transferred to 12 crystallization wells and evaporated to dryness. Upon evaporation, each well was charged with 100 µl of solvent using a robotic liquid handler. The following crystallization solvents were tested: methyl isobutyl ketone (MIBK), ethyl acetate, toluene, THF, acetonitrile, acetone, isopropanol, ethanol, methanol, 1,2-dichloroethylene, isopropanol/water (50:50), and water. Next, the plates were sealed with Teflon septa and subjected to temperature cycling. […] After the heating/cooling cycle, the contents of the wells were characterized by birefringent imaging. Perceived crystalline hits were further characterized by PXRD analysis.

[6] = physchem; settings: thermodynamic from solid
[7] = water; listed as free base

- XRPD pattern after attempted desolvation ([1]; ambient conditions for two weeks): same Form L
- XRPD pattern after attempted desolvation ([1]; vacuum oven for 24 hours): converted to x-ray amorphous
Compound: CC(C)(C)c1cc(C(C)(C)C)c(NC(=O)c2c[nH]c3ccccc3c2=O)cc1O [Form L ({drug7j}), N-[2,4-bis(1,1-dimethylethyl)-5-hydroxyphenyl]-1,4-dihydro-4-oxoquinoline-3-carboxamide]

- XRPD pattern after attempted desolvation ([1]; vacuum oven for one month): became x-ray amorphous
Compound: CC(C)(C)c1cc(C(C)(C)C)c(NC(=O)c2c[nH]c3ccccc3c2=O)cc1O [Form G ({drug7e}), N-[2,4-bis(1,1-dimethylethyl)-5-hydroxyphenyl]-1,4-dihydro-4-oxoquinoline-3-carboxamide]

- XRPD Result after form conversion experiment ([2]; Heated to 220 °C for 4 hours): Form A+C
- XRPD Result after form conversion experiment ([2]; Slurry in NMP/Acetone/water at ambient for 5 days): Form A+C
- XRPD Result after form conversion experiment ([2]; Slurry in NMP/Acetone/water at ambient for 10 days): Form A+C
Compound: NC1(C(=O)N[C@@H](CCO)c2ccc(Cl)cc2)CCN(c2ncnc3[nH]ccc23)CC1 [Form C, (S)-4-amino-N-(1-(4-chlorophenyl)-3-hydroxypropyl)-1-(7H-pyrrolo[2,3-d]pyrimidin-4-yl)piperidine-4-carboxamide]

- water content of samples ([5]; >25% relative humidity): ~6 wt. %
- Hygroscopicity ([5]; listed as fumaric acid salt): hygroscopic
Compound: Fumaric acid
- Hygroscopicity [5]: hygroscopic at ambient temperature and relative humidity conditions

- total mass change [3]: 0.43%
- XRPD Result after form conversion experiment ([2]; Heated to 220 °C for 4 hours): partially converts to Form A
- Form conversion ([2]; ambient temperature, NMP/acetone/water (1:2.5:2.5), time not stated): converts to Form A
Compound: O=C1CCC(N2Cc3c(cccc3[N+](=O)[O-])C2=O)C(=O)N1 (centres unmarked) [Form C ({drug5d}), 3-(4-nitro-1-oxoisoindolin-2-yl)piperidine-2,6-dione]

- XRPD pattern after attempted desolvation ([1]; standing under ambient conditions and sitting in the vacuum oven): same XRPD patterns
Compound: CC(C)(C)c1cc(C(C)(C)C)c(NC(=O)c2c[nH]c3ccccc3c2=O)cc1O [Form E ({drug7c}), N-[2,4-bis(1,1-dimethylethyl)-5-hydroxyphenyl]-1,4-dihydro-4-oxoquinoline-3-carboxamide]

- XRPD pattern after attempted desolvation ([1]; ambient conditions for one month): same Form H
- XRPD pattern after attempted desolvation ([1]; vacuum oven for one month): converted to a semi-crystalline form
Compound: CC(C)(C)c1cc(C(C)(C)C)c(NC(=O)c2c[nH]c3ccccc3c2=O)cc1O [Form H ({drug7f}), N-[2,4-bis(1,1-dimethylethyl)-5-hydroxyphenyl]-1,4-dihydro-4-oxoquinoline-3-carboxamide]

The remaining lines, values behind:

Compound: CC(C)(C)c1cc(C(C)(C)C)c(NC(=O)c2c[nH]c3ccccc3c2=O)cc1O [Form D ({drug7b}), N-[2,4-bis(1,1-dimethylethyl)-5-hydroxyphenyl]-1,4-dihydro-4-oxoquinoline-3-carboxamide]
- XRPD pattern after attempted desolvation ([1]; ambient conditions and vacuum oven for approximately 1 month): converted to a new crystalline form of Compound (VII) designated Form R

Compound: NC1(C(=O)N[C@@H](CCO)c2ccc(Cl)cc2)CCN(c2ncnc3[nH]ccc23)CC1 [Form B, (S)-4-amino-N-(1-(4-chlorophenyl)-3-hydroxypropyl)-1-(7H-pyrrolo[2,3-d]pyrimidin-4-yl)piperidine-4-carboxamide]
- XRPD Result after form conversion experiment ([2]; Heated to 220 °C for 4 hours): Form A

Compound: CC(C)(C)c1cc(C(C)(C)C)c(NC(=O)c2c[nH]c3ccccc3c2=O)cc1O [Form K ({drug7i}), N-[2,4-bis(1,1-dimethylethyl)-5-hydroxyphenyl]-1,4-dihydro-4-oxoquinoline-3-carboxamide]
- XRPD pattern after attempted desolvation ([1]; ambient conditions and vacuum oven for 2 months): converted to a new crystalline form of Compound (VII) designated Form S

Compound: O=C1CCC(N2Cc3c(cccc3[N+](=O)[O-])C2=O)C(=O)N1 (centres unmarked) [Form B ({drug5c}), 3-(4-nitro-1-oxoisoindolin-2-yl)piperidine-2,6-dione]
- total mass change [3]: 0.39%
- Form by XRPD after equilibration ([2]; Acetonitrile, 80 °C (or reflux)): converts to Form A
- Form by XRPD after equilibration ([2]; Acetonitrile/water (2:1), 60 °C): converts to Form A
- XRPD Result after form conversion experiment ([2]; Heated to 220 °C for 4 hours): converts to Form A
- Form by XRPD after equilibration ([4]; Acetone/water (1:1)): converts to Form A
- Form by XRPD after equilibration ([4]; Acetonitrile/water (1:1)): converts to Form A
- Form by XRPD after equilibration ([4]; Acetonitrile/water/acetone (1:1:1)): converts to Form A
- Form by XRPD after equilibration ([4]; acetone): converts to Form A
- Form by XRPD after equilibration ([4]; water): converts to Form A

Compound: N#Cc1ccc([C@H]2CCc3cncn32)c(F)c1 [Compound (III), 4-(R)-(6,7-Dihydro-5H-pyrrolo[1,2-c]imidazol-5-yl)-3-fluoro-benzonitrile]
- Moisture gain (r.h. 0%): 0.0%
- Moisture gain (r.h. 5%): 0.0%
- Moisture gain (r.h. 25%, listed as free base): 0.1%
- Moisture gain (r.h. 50%, listed as free base): 0.2%
- Moisture gain (r.h. 75%, listed as free base): 0.3%
- Moisture gain (r.h. 85%, listed as free base): 0.5%
- Moisture gain (r.h. 95%, listed as free base): 1.0%
- solubility ([6]; acetone, 25 °C, organic solvent or mixture): > 50 mg/mL
- solubility ([6]; aqueous solvent, pH 1, 25 °C, pH 1, simulated gastric fluid, pH 1): > 50 mg/mL
- solubility ([6]; ethanol, 25 °C, organic solvent or mixture): > 50 mg/mL
- solubility ([6]; ethyl acetate, 25 °C, organic solvent or mixture): > 50 mg/mL
- Solubility in water at the 0.1% target concentration [7]: largely insoluble

Compound: Cl [Hydrochloric acid]
- Hygroscopicity [5]: Crystalline salt; crystals were hygroscopic at ambient temperatures and relative humidity conditions; crystalline salt samples included multiple hydration states and multiple crystalline forms. Solid state NMR indicated that prepared samples contained mixture of crystalline phases.
- Hygroscopicity ([5]; listed as hydrochloric acid salt): hygroscopic

Compound: N#Cc1ccc([C@H]2CCc3cncn32)c(F)c1 [HCl, 4-(R)-(6,7-dihydro-5H-pyrrolo[1,2-c]imidazol-5-yl)-3-fluoro-benzonitrile, reference compound]
- Moisture gain (r.h. 25%): 0.5%
- Moisture gain (r.h. 50%): 0.2%
- Moisture gain (r.h. 75%): 0.2%
- Moisture gain (r.h. 85%): 3.3%
- Moisture gain (r.h. 95%): 23.6%

Compound: Citric acid
- Hygroscopicity [5]: Crystalline salt; hygroscopic at ambient temperature and relative humidity conditions. PXRD patterns of slurry and dried material did not match.
- Hygroscopicity ([5]; listed as citric acid salt): hygroscopic

Compound: O=C1CCC(N2Cc3c(cccc3[N+](=O)[O-])C2=O)C(=O)N1 (centres unmarked) [Form A ({drug5b}), 3-(4-nitro-1-oxoisoindolin-2-yl)piperidine-2,6-dione]
- total mass change [3]: 0.42%
- Form conversion to other forms ([4]; form conversion studies): no conversion
